The experiment has as its system Cisd2 promoter with firefly luciferase reporter. Description: Cisd2-luciferase reporter assay in HEK293-CISD2 cells. The experiment is classed as cell-based. As to conditions: Homo sapiens, 24 hours incubation, luciferase luminescence. Summed up:
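HEK293 cells stably carrying Cisd2 promoter-firefly luciferase, seeded at 3×10^3 cells/well, exposed to compounds 24 h at 37 °C; luminescence read after 5 min ONE-Glo at room temperature. EC50 reported in classes: A <1 μM, B 1-5 μM, C 5-10 μM.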
For orientation: In a reporter assay the amount or activity of a reporter protein is the signal.
For the compound `O=C(CC[S+]([O-])c1ccccc1Cl)N1Cc2ccccc2C1` (stereo not shown) [Compound 83, 3-[(2-chlorophenyl)sulfinyl]-1-(1,3-dihydro-2H-isoindol-2-yl)propan-1-one], the EC50 was less than 1 µM.
For the compound `O=C1N[C@H]2[C@H](CS[C@H]2CCCCC(=O)Oc2ccc3c(c2)CN(C(=O)CS(=O)(=O)c2nccs2)C3)N1` [Compound 51, 2-[(1,3-thiazol-2-ylsulfonyl)acetyl]-2,3-dihydro-1H-isoindol-5-yl 5-[(3aS,4S,6aR)-2-oxohexahydro-1H-thieno[3,4-d]imidazol-4-yl]pentanoate], the EC50 was less than 1 µM.
For the compound `O=C(CCSc1ccccc1)N1Cc2ccccc2C1` [Compound 79, 1-(1,3-dihydro-2H-isoindol-2-yl)-3-(phenylsulfanyl)propan-1-one], the EC50 is less than 1 µM.
In the case of `O=C(N1Cc2ccc(F)cc2C1)C(F)(F)Sc1ccccn1` [Compound 26, 2,2-difluoro-1-(5-fluoro-1,3-dihydro-2H-isoindol-2-yl)-2-(pyridin-2-ylsulfanyl)ethanone] it was less than 1 µM; in that of `COc1ccc2c(c1)CN(C(=O)CS(=O)(=O)c1nccs1)C2` [Compound 29, 1-(5-methoxy-1,3-dihydro-2H-isoindol-2-yl)-2-(1,3-thiazol-2-ylsulfonyl)ethanone], less than 1 µM.
In the case of `O=C(CS(=O)(=O)c1ccc(F)cn1)N1Cc2ccccc2C1` [Compound 101, 1-(1,3-dihydro-2H-isoindol-2-yl)-2-[(5-fluoropyridin-2-yl)sulfonyl]ethanone] it was less than 1 µM; in that of `O=C(CC[S+]([O-])c1ccccc1)N1Cc2ccccc2C1` (stereo not shown) [Compound 84, 1-(1,3-dihydro-2H-isoindol-2-yl)-3-(phenylsulfinyl)propan-1-one], less than 1 µM; in that of `Cc1csc(S(=O)(=O)CC(=O)N2Cc3ccccc3C2)n1` [Compound 94, 1-(1,3-dihydro-2H-isoindol-2-yl)-2-[(4-methyl-1,3-thiazol-2-yl)sulfonyl]ethanone], less than 1 µM.
The compound `Cc1cnc(SCC(=O)N2Cc3ccc(F)cc3C2)s1` [Compound 12, 1-(5-fluoro-1,3-dihydro-2H-isoindol-2-yl)-2-[(5-methyl-1,3-thiazol-2-yl)sulfanyl]ethanone] showed an EC50 of less than 1 µM.
The compound `O=C(N1Cc2ccccc2C1)C(F)(F)Sc1nccs1` [Compound 52, 1-(1,3-dihydro-2H-isoindol-2-yl)-2,2-difluoro-2-(1,3-thiazol-2-ylsulfanyl)ethanone] yielded an EC50 of less than 1 µM.
In the case of `O=C(CCSc1nccs1)N1Cc2ccccc2C1` [Compound 23, 1-(1,3-dihydro-2H-isoindol-2-yl)-3-(1,3-thiazol-2-ylsulfanyl)propan-1-one] it was less than 1 µM; in that of `O=C(CS(=O)(=O)c1nccs1)N1Cc2cc(Cl)c(Cl)cc2C1` [Compound 34, 1-(5,6-dichloro-1,3-dihydro-2H-isoindol-2-yl)-2-(1,3-thiazol-2-ylsulfonyl)ethanone], less than 1 µM; in that of `O=C(CSc1ncco1)N1Cc2ccccc2C1` [Compound 72, 1-(1,3-dihydro-2H-isoindol-2-yl)-2-(1,3-oxazol-2-ylsulfanyl)ethanone], less than 1 µM.
In the case of `Cn1ccc(S(=O)(=O)CC(=O)N2Cc3ccccc3C2)n1` [Compound 102, 1-(1,3-dihydro-2H-isoindol-2-yl)-2-[(1-methyl-1H-pyrazol-3-yl)sulfonyl]ethanone] it was 1 to 5 µM; in that of `Cc1cccc(SCC(=O)N2Cc3ccccc3C2)n1` [Compound 17, 1-(1,3-dihydro-2H-isoindol-2-yl)-2-[(6-methylpyridin-2-yl)sulfanyl]ethanone], 1 to 5 µM; in that of `O=C(CS(=O)(=O)c1ccccn1)N1Cc2ccc(N3CCOCC3)cc2C1` [Compound 100, 1-[5-(morpholin-4-yl)-1,3-dihydro-2H-isoindol-2-yl]-2-(pyridin-2-ylsulfonyl)ethanone], 1 to 5 µM.
In the case of `O=C(CCSc1ccccc1Cl)N1Cc2ccccc2C1` [Compound 78, 3-[(2-chlorophenyl)sulfanyl]-1-(1,3-dihydro-2H-isoindol-2-yl)propan-1-one] it was less than 1 µM; in that of `O=C(CS(=O)(=O)c1cccc(F)c1)N1Cc2ccccc2C1` [Compound 86, 1-(1,3-dihydro-2H-isoindol-2-yl)-2-[(3-fluorophenyl)sulfonyl]ethanone], less than 1 µM.
Turning to `O=C(CS(=O)(=O)c1ccccn1)N1Cc2ccc(F)cc2C1` [Compound 40, 1-(5-fluoro-1,3-dihydro-2H-isoindol-2-yl)-2-(pyridin-2-ylsulfonyl)ethanone], the EC50 is less than 1 µM.

As a reminder, the EC50 is the concentration that produces a half-maximal response. Read a low EC50 as an effect from little substance.

(Values after US11827629B2, “CDGSH iron sulfur domain 2 activators and use thereof” (National Health Research Institutes, priority 2021, dated 2023).)
